According to patent publication US9981025B2, “Anti-drug vaccines” (priority 2009, dated 2018):

Assay: Cocaine degradation in mouse sera by mass spectrometry
Format: in vitro ADME
From the text: FIG. 15. Degradation of cocaine in non-immune mouse serum (NIS) and in non-immune mouse serum diluted in PBS (PBS/NIS) by mass spectrometry.
FIGS. 16A-B. Rates of cocaine degradation in (A) non-immune mouse sera and (B) 5 immune mouse sera measured by a decrease in peak area (y-axis) of the cocaine peak generated by mass-spectrometry analysis.
The kinetics of cocaine degradation in immune and non-immune mouse sera was then studied by mass spectroscopy to discern the pharmacological effects of anti-coc antibodies. Although degradation rates were nearly uniform in all non-immune mice (FIG. 16A), significant differences existed in the rates in immune mice, depending on the titer of anti-coc antibodies in the plasma (FIG. 16B).

COC(=O)[C@@H]1C2CCC(C[C@@H]1OC(=O)c1ccccc1)N2C (some centres unmarked) [cocaine]
rate of cocaine degradation (immune mouse sera, with increasing titer of anti-coc antibodies): degradation rates conversely decreased
rate of cocaine degradation (non-immune mouse serum diluted in PBS versus undiluted): decreased rate of cocaine degradation
